Data reported in patent US7718676B2, “2-aminoaryloxazole compounds as tyrosine kinase inhibitors” (AB Science, priority 2003, dated 2010).

Row | melting point [°C] | Structure (SMILES)
1 | 228 | Cc1ccc(NC(=O)c2cccc(N(C)C)c2)cc1Nc1ncc(-c2cccnc2)o1 [Compound 010, 3-Dimethylamino-N-[4-methyl-3-(5-pyridin-3-yl-oxazol-2-ylamino)-phenyl]-benzamide]
2 | 203 | Cc1ccc(C(=O)Nc2ccc(C#N)cc2)cc1Nc1ncc(-c2cccnc2)o1 [Compound 058, N-(4-Cyano-phenyl)-4-methyl-3-(5-pyridin-3-yl-oxazol-2-ylamino)-benzamide]
